Columns and labels:
AVEFA = assay: Pre-emergence herbicidal action against AVEFA; type: in vivo, Avena fatua; settings: Avena fatua, 504 h; 80 g/ha, pre-emergence
How it was run: (§1)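 Pre-emergence soil-surface spray of formulated compound (WP or EC; 600 to 800 l/ha; 0.2% wetting agent) over seeds sown in sandy loam. After 3 weeks under greenhouse conditions, damage is estimated visually in percent against untreated plants.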

ALOMY = assay: Pre-emergence herbicidal action against ALOMY; type: in vivo, Alopecurus myosuroides; settings: Alopecurus myosuroides, 504 h, pre-emergence
How it was run: as §1

MATIN [1] = assay: Pre-emergence herbicidal action against MATIN; type: in vivo, Matricaria inodora
How it was run: as §1

VIOTR [2] = assay: Pre-emergence herbicidal action against VIOTR; type: in vivo, Viola tricolor
How it was run: as §1

PHBPU [3] = assay: Post-emergence herbicidal action against PHBPU; type: in vivo, Pharbitis purpurea; settings: dosage 20 g/ha
How it was run: (§2)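 Greenhouse plants in sandy loam were sprayed at the one-leaf stage, 2 to 3 weeks after sowing, with WP or EC formulations as aqueous suspension or emulsion (600 to 800 l/ha water, 0.2% wetting agent). Visual damage was scored about 3 weeks later versus untreated controls, 0% = like control, 100% = dead.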

DIGSA [4] = assay: Pre-emergence herbicidal action against DIGSA; type: in vivo, Digitaria sanguinalis
How it was run: as §1

ECHCG [5] = assay: Post-emergence herbicidal action against ECHCG; type: in vivo, Echinochloa crus-galli; settings: dosage 20 g/ha
How it was run: as §2

ABUTH = assay: Pre-emergence herbicidal action against ABUTH; type: in vivo, Abutilon theophrasti
How it was run: as §1

ECHCG [6] = assay: Pre-emergence herbicidal action against ECHCG; type: in vivo, Echinochloa crus-galli; settings: 80 g/ha
How it was run: as §1

SETVI = assay: Pre-emergence herbicidal action against SETVI; type: in vivo, Setaria viridis; settings: dosage 80 g/ha
How it was run: as §1

VERPE [7] = assay: Post-emergence herbicidal action against VERPE; type: in vivo, Veronica persica; settings: 20 g/ha
How it was run: as §2

AMARE [8] = assay: Pre-emergence herbicidal action against AMARE; type: in vivo, Amaranthus retroflexus
How it was run: as §1

PHBPU [9] = assay: Pre-emergence herbicidal action against PHBPU; type: in vivo, Pharbitis purpurea; settings: dosage 80 g/ha
Text: Seeds of monocotyledonous and dicotyledonous weed plants and crop plants are laid out in sandy loam soil in wood-fiber pots and covered with soil. The compounds of the invention, formulated in the form of wettable powders (WP) or as emulsion concentrates (EC), are then applied to the surface of the covering soil in the form of an aqueous suspension or emulsion at a water application rate equivalent to 600 to 800 l/ha, with addition of 0.2% wetting agent. After the treatment, the pots are placed in a greenhouse and kept under good growth conditions for the trial plants. The damage to the test plants is scored visually after a test period of 3 weeks by comparison with untreated controls (herbicidal activity in percent (%): 100% activity=the plants have died, 0% activity=like control plants). […] The tables below illustrate, in an illustrative manner, the post-emergence herbicidal action of the compounds of the invention, the herbicidal activity being stated in percent.

AMARE [10] = assay: Post-emergence herbicidal action against AMARE; type: in vivo, Amaranthus retroflexus; settings: 20 g/ha, visual assessment about 3 weeks after treatment, 100% = plants have died, 0% = like control plants
How it was run: as §2

DIGSA [11] = assay: Post-emergence herbicidal action against DIGSA; type: in vivo, Digitaria sanguinalis
How it was run: as §2

VIOTR [12] = assay: Post-emergence herbicidal action against VIOTR; type: in vivo, Viola tricolor; settings: 20 g/ha
How it was run: as §2

VERPE [13] = assay: Pre-emergence herbicidal action against VERPE; type: in vivo, Veronica persica; settings: dosage 80 g/ha
How it was run: as §1

MATIN [14] = assay: Post-emergence herbicidal action against MATIN; type: in vivo, Matricaria inodora; settings: dosage 20 g/ha
How it was run: as §2

[15] = 80 g/ha, scored visually after 3 weeks vs untreated controls (100% = plants have died, 0% = like control plants)

`Cc1nnc(NC(=O)c2ccc(C(F)(F)F)c(C(=O)NCC(F)(F)F)c2Cl)o1` [Example 6-120] was tested, and the pest or weed control at 80 g/ha (AVEFA) was 90%, the pest or weed control at 80 g/ha (ALOMY; [15]) was 90% and the pest or weed control at 20 g/ha (ALOMY; 20 g/ha, scored visually after 3 weeks, 100% = plants have died, 0% = like control plants) was 80%. For the same compound, the pest or weed control at 20 g/ha (MATIN [1]; Tripleurospermum inodorum, 504 h, dosage 20 g/ha) was 90%, the pest or weed control at 80 g/ha (MATIN [1]; Tripleurospermum inodorum, 504 h, dosage 80 g/ha) was 90% and the pest or weed control at 80 g/ha (VIOTR [2]; Viola tricolor, 504 h, dosage 80 g/ha) was 90%. For the same compound, the pest or weed control at 20 g/ha (PHBPU [3]; Ipomoea purpurea, 504 h) was 90%, the pest or weed control at 80 g/ha (DIGSA [4]; Digitaria sanguinalis, 504 h, dosage 80 g/ha) was 90% and the pest or weed control at 20 g/ha (ECHCG [5]; Echinochloa crus-galli, 504 h) was 90%. It also gave a pest or weed control at 80 g/ha (ABUTH; Abutilon theophrasti, 504 h, 80 g/ha, scored visually after 3 weeks vs untreated controls (100% = plants have died, 0% = like control plants)) of 100%, a pest or weed control at 20 g/ha (ABUTH; Abutilon theophrasti, 504 h, dosage 20 g/ha, scored visually after 3 weeks vs untreated controls, 100% = plants have died, 0% = like control plants, read-out: Pre-emergence action against ABUTH (herbicidal activity in percent)) of 80% and a pest or weed control at 80 g/ha (ECHCG [6]; Echinochloa crus-galli, 504 h) of 100%. The pest or weed control at 80 g/ha (SETVI; Setaria viridis, 504 h) was 100%, the pest or weed control at 20 g/ha (VERPE [7]; Veronica persica, 504 h) was 80% and the pest or weed control at 20 g/ha (AMARE [8]; Amaranthus retroflexus, 504 h, 20 g/ha, scored visually after 3 weeks vs untreated controls, 100% = plants have died, 0% = like control plants) was 100%. For the same compound, the pest or weed control at 80 g/ha (AMARE [8]; Amaranthus retroflexus, 504 h, 80 g/ha, scored visually after 3 weeks vs untreated controls, 100% = plants have died, 0% = like control plants) was 100%, the pest or weed control at 80 g/ha (PHBPU [9]; Ipomoea purpurea, 504 h) was 80% and the pest or weed control at 20 g/ha (AMARE [10]; Amaranthus retroflexus, 504 h) was 90%.
`CCn1nnnc1NC(=O)c1ccc(C(F)F)c(C(=O)NC(C)C2CC2)c1Br` (stereo not shown) [Example 2-340] was tested, and the “Post-emergence action against DIGSA in %” value (DIGSA [11]; 5 g/ha) was 80%, the “Post-emergence action against DIGSA” value (DIGSA [11]; 20 g/ha) was 90% and the “Pre-emergence action against MATIN in %” value (MATIN [1]; dosage 20 g/ha) was 100%. For the same compound, the “Pre-emergence action against MATIN in %” value (MATIN [1]; dosage 80 g/ha) was 100%, the “Pre-emergence action against VIOTR in %” value (VIOTR [2]; dosage 20 g/ha) was 100% and the “Pre-emergence action against VIOTR in %” value (VIOTR [2]; dosage 80 g/ha) was 100%. For the same compound, the “Post-emergence action against PHBPU in %” value (PHBPU [3]) was 80%, the “Pre-emergence action against DIGSA in %” value (DIGSA [4]; dosage 20 g/ha) was 100% and the “Pre-emergence action against DIGSA in %” value (DIGSA [4]; dosage 80 g/ha) was 100%. For the same compound, the “Post-emergence action against ECHCG in %” value (ECHCG [5]) was 90%, the “Pre-emergence action against ABUTH (herbicidal activity)” value (ABUTH; [15]) was 100% and the “Pre-emergence action against ABUTH (herbicidal activity in percent)” value (ABUTH; dosage 20 g/ha, scored visually after 3 weeks vs untreated controls, 100% = plants have died, 0% = like control plants) was 100%. For the same compound, the “Post-emergence action against VIOTR in %” value (VIOTR [12]) was 80%, the “Pre-emergence action against ECHCG in %” value (ECHCG [6]) was 100% and the “Pre-emergence action against SETVI in %” value (SETVI) was 100%. The “Post-emergence action against VERPE in %” value (VERPE [7]) was 90%, the “Pre-emergence action against AMARE in %” value (AMARE [8]; 20 g/ha, scored visually after 3 weeks vs untreated controls, 100% = plants have died, 0% = like control plants) was 100% and the “Pre-emergence action against AMARE in %” value (AMARE [8]; [15]) was 100%. For the same compound, the “Pre-emergence action against PHBPU in %” value (PHBPU [9]) was 80%, the “Post-emergence action at 20 g/ha against AMARE in %” value (AMARE [10]) was 100% and the “Pre-emergence action against VERPE in %” value (VERPE [13]) was 100%. The “Post-emergence action against MATIN in %” value (MATIN [14]) was 80%.

Reference: patent US12655116B2, “Substituted isophthalic acid diamides” (Bayer Aktiengesellschaft, priority 2020, dated 2026)
